# Biological target: High affinity nerve growth factor receptor (Homo sapiens, UniProt P04629)
# Assay: Kinase Binding Assay: TrkA binding activity was determined in a TrkA LanthaScreen™ Eu Kinase Binding Assay. 5 nM His-tagged recombinant human TrkA (6HIS tagged cytoplasmic domain from Invitrogen, Catalog No. PV3144) was incubated with 4 nM Alexa-Fluor® Tracer 236 (Invitrogen Cat. No. PV5592), 2 nM biotinylated anti-His (Invitrogen Cat. No. PV6090), and 2 nM europium-labeled Streptavidin (Invitrogen Cat. No. PV5899), in buffer (25 mM MOPS, pH 7.5, 5 mM MgCl2, 0.005% Triton X-100). Three fold serial dilutions of compounds of the invention in DMSO were added to a final percentage of 2% DMSO. After 60-minute incubation at 22° C., the reaction was measured using the EnVision mutlimode plate reader (PerkinElmer) via TR-FRET dual wavelength detection at […]. The percent of control was calculated using a ratiometric emission factor.
# Sequence of High affinity nerve growth factor receptor (P04629 whole entry, the tested form may be a part): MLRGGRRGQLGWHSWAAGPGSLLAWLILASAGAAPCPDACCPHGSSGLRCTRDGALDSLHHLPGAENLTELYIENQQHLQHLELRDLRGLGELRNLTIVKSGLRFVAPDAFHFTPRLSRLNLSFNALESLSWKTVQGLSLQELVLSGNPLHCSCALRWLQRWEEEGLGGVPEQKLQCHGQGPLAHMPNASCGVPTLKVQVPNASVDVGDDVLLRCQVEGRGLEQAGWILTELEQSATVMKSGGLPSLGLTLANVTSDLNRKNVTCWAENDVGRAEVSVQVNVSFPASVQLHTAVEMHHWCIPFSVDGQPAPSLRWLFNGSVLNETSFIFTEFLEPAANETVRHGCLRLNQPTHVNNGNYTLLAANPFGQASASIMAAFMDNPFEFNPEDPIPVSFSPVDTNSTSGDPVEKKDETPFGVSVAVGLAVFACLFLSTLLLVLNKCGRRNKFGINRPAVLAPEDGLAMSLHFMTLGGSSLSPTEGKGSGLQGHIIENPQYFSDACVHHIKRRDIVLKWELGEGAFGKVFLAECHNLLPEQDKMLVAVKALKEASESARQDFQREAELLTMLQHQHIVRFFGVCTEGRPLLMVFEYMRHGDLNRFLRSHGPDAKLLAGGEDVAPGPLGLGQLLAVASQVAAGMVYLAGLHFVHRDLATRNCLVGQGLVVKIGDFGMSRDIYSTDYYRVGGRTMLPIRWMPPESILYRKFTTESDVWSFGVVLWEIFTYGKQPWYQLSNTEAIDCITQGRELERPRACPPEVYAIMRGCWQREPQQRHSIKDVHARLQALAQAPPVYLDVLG
row,Compound,IC50 [nM]
1,CC1(C)C[C@@H](O)[C@H](NC(=O)Nc2c3c(nn2-c2ccccc2)COC3)c2ccccc21 (relative stereo),< 100
2,CC(C)(C)OC(=O)N1CCO[C@@H](COc2nn(-c3ccccc3)c(NC(=O)N[C@@H]3c4ccccc4C4(CC4)[C@H]3O)c2Cl)C1,< 100
3,Cc1c(-c2ccc(=O)n(C)c2)nn(-c2ccccc2)c1NC(=O)NC1CN(CC(F)(F)F)Cc2ccccc21 (stereo not drawn),< 100

# — ChEMBL document CHEMBL5727197, “Bicyclic urea, thiourea, guanidine and cyanoguanidine compounds useful for the treatment of pain” (2019)
